From PubChem BioAssay AID1963833 (Molecular Pharmacology Branch, DTP, NCI, 2024)
Values joined by “and” are separate entries in the source; they are usually repeats but may differ in a detail not shown here. Equal values may be shown once.

Tested on: 883617-216-R-J1-PDC complex spheroid viability
Assay: Anticancer human tumor 883617-216-R-J1-PDC patient-derived bladder carcinoma cell line growth inhibition [POLQ]
Conditions: for viability, T/C: stronger effect = lower value; for IC50: curve of compound
Description: Multicellular complex tumor spheroid response to Polymerase (POL) inhibitors (novobiocin, ART-558, RP6685) in combination with a variety of drugs and investigational agents in selected tumor cell lines
The POL inhibitors (novobiocin, ART-558, and RP6685) were evaluated both individually and in combination with standard of care and investigational anticancer small molecules within a complex spheroid model of solid tumors. . Complex spheroids include a stromal component modeled by human endothelial cells (HUVEC) and fibroblasts modeled by human mesenchymal stem cells (MSCs). The concentration ranges selected for each drug and investigational agent were based upon clinically achievable concentrations if the clinical Cmax of the agent was known.
Compounds. The drugs and investigational agents: novobiocin (NSC847541), ART-558 (NSC835418), RP-6685 (NSC848927), peposertib (NSC802822), ceralasertib (NSC780249), elimusertib (NSC800525), camonsertib (NSC841442), AZD-1390 (NSC803789), olaparib (NSC753686), talazoparib (NSC767125), rucaparib (NSC756644), sotorasib (NSC818433), MRTX-1133 (NSC836407), SN-38 (NSC673596), topotecan (NSC609699), epotoside (NSC141540), doxorubicin (NSC123127), gemcitabine (NSC613327), 5-fluorouracil (NSC19893), paclitaxel (NSC125973), vemurafenib (NSC761431), MSA-2 (NSC828583), SN-011 (NSC837082), adavosertib (NSC754352), prexasertib (NSC758257), carboplatin (NSC241240) and oxaliplatin (NSC266046), were obtained from the National Cancer Institute (NCI) Developmental Therapeutics Program Chemical Repository (21). The FDA-approved anticancer drug set is available from the Developmental Therapeutics Program at https://dtp.cancer.gov/organization/dscb/obtaining/. […] The stock solutions were prepared in dimethyl sulfoxide (DMSO, Sigma-Aldrich, St. Louis, MO, cat. D2650), except for the platinum compounds which were prepared in saline (Quality Biological, Gaithersburg, MD, cat. 114-055-101), at 800-fold the tested concentration and stored at -70 degrees C prior to their use. All drugs and investigational agents were tested over a range starting from a high concentration at or near the clinical Cmax and decreasing in half-log increments. If the clinical Cmax for an agent had not been determined, the highest concentration tested was 10 microM, except for SN-38, which was tested at a high concentration of 1 microM.
Cell Culture. All cells were maintained in an incubator at 37 degrees C and 5% CO2 with 95% humidity. The PDC lines were cultured according to standard operating procedures established by the NCI PDMR (https://pdmr.cancer.gov). Table 3 of the manuscript, lists the cell lines along with the number of the three cell types plated to form the mct-spheroids and media for tumor cell growth. After thawing, all PDC lines, except 997537-175-T-J1-PDC and 415267-285-R-J2-PDC, were cultured in Matrigel-coated flasks prepared with a working solution of 1X Ham's F-12 nutrient mix, without supplementation (Thermo Fisher Scientific, cat. 11765054), 100 U/mL penicillin-streptomycin (Thermo Fisher Scientific, cat. 15140122), and 2.5% Matrigel (Corning Inc., Corning, NY, cat. 354248) for the first three passages. The two PDC lines 997537-175-T-J1-PDC and 415267-285-R-J2-PDC were cultured on uncoated flasks. The 857933-349-R-J2-PDC line was cultured in 6C/Colon 1B media containing advanced DMEM/F-12 (Thermo Fisher Scientific, cat. 12634028), 10 mM HEPES (Thermo Fisher Scientific, cat. 15630080), 1X GlutaMAX supplement (Thermo Fisher Scientific, cat. 35050061), 0.1 mg/mL primocin (InvivoGen, San Diego, CA, cat. ant-pm-2), 10% defined fetal bovine serum, heat inactivated (HyClone Laboratories Inc., Logan, UT, cat. SH30070.03HI), 50% L-WRN conditioned media (ATCC, cat. CRL-3276), 1.25 mM N-Acetyl-L-cysteine (Sigma-Aldrich, cat. A9165), 10 mM nicotinamide (Sigma-Aldrich, cat. N0636), 1X B-27 supplement (Thermo Fisher Scientific, cat. 17504044), 1X N-2 supplement (Thermo Fisher Scientific, cat. […]
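Also: spheroids exposed to compounds for seven days before readout.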
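For viability, T/C in this document: 100% = DMSO vehicle control viability.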

SMILES	viability, T/C (compound 0.0316 µM)	viability, T/C (compound 0.1 µM)	viability, T/C (compound 0.316 µM)	viability, T/C (compound 1 µM)	viability, T/C (compound 3.16 µM)	viability, T/C (compound 10 µM)	IC50	viability, T/C (compound 0.00316 µM)	viability, T/C (compound 0.01 µM)	viability, T/C (compound 0.00949 µM)	viability, T/C (compound 0.03 µM)	viability, T/C (compound 0.0949 µM)	viability, T/C (compound 0.3 µM)	viability, T/C (compound 0.949 µM)	viability, T/C (compound 3 µM)	viability, T/C (compound 0.000316 µM)	viability, T/C (compound 0.001 µM)
C#Cc1c(F)ccc2cc(O)cc(-c3ncc4c(N5CC6CCC(C5)N6)nc(OCC56CCCN5CC(F)C6)nc4c3F)c12 (stereo unspecified)	98% and 83% and 93.6%	95% and 94% and 84.2%	101% and 82% and 104%	95.3% and 81.1% and 88.5%	94.2% and 83% and 85.1%	72.5% and 74.3% and 83.1%	> 10000 nM										
C=CC(=O)N1CCN(c2nc(=O)n(-c3c(C)ccnc3C(C)C)c3nc(-c4c(O)cccc4F)c(F)cc23)C(C)C1 (stereo unspecified)	74.3% and 68% and 64%	64.8% and 60.8% and 63.8%	75.8% and 70.3% and 81.9%	72.6% and 83.2% and 78.3%	91.3% and 76.7% and 85%	81.6% and 83.3% and 76.6%	> 10000 nM										
C=CCn1c(=O)c2cnc(Nc3ccc(N4CCN(C)CC4)cc3)nc2n1-c1cccc(C(C)(C)O)n1	100% and 108% and 112%	107% and 87.8% and 93.7%	85.4% and 72.3% and 92.5%	48.6% and 50.2% and 50.6%			960 nM and > 1000 nM	97.5% and 107% and 98.8%	100% and 96.8% and 90.3%								
CC(=O)O[C@H]1C(=O)[C@@]2(C)[C@H]([C@H](OC(=O)c3ccccc3)[C@]3(O)C[C@H](OC(=O)[C@H](O)[C@@H](NC(=O)c4ccccc4)c4ccccc4)C(C)=C1C3(C)C)[C@]1(OC(C)=O)CO[C@@H]1C[C@@H]2O							< 9.49 nM and 13.9 nM			44.9% and 57% and 43.1%	32.5% and 35.8% and 26.7%	22.9% and 26.7% and 15.8%	30.6% and 21.1% and 24.6%	28.4% and 23.5% and 25.1%	26.5% and 19.3% (2×)		
CC(C)n1c(=O)n(C)c2cnc3cc(F)c(-c4ccc(OCCCN5CCCCC5)nc4)cc3c21	96% and 105% and 102%	90.3% and 101% and 98.8%	112% and 103% and 111%	106% and 108% and 94.5%	87.5% and 84% and 102%	52.9% and 72% and 69.1%	> 10000 nM										
CC1COCCN1c1cc(-c2ccnn2C)c2ccnc(-c3ccn[nH]3)c2n1 (stereo unspecified)	83.5% and 90% and 77.5%	51.3% and 58.9% and 59.6%	43.9% and 45.8% and 56.5%	36.8% and 37.4% and 36.7%	32.3% and 29.7% and 40.9%	27.4% and 31.1% and 28.9%	151 nM and 210 nM and 393 nM										
CC1COCCN1c1cc(C2(O)CC3CCC(C2)O3)c2cnn(-c3ccn[nH]3)c2n1 (stereo unspecified)	73.6% and 75.5% and 72.3%	55.3% and 49.3% and 45.5%	50.6% and 44.3% and 45.2%	30.4% and 30% and 34.4%	23.1% and 26.1% and 31%	22.6% and 20.5% and 20.6%	213 nM and 137 nM and 135 nM										
CC1COCCN1c1cc(C2(S(C)(=N)=O)CC2)nc(-c2ccnc3[nH]ccc23)n1 (stereo unspecified)	98.9% and 101% and 87.7%	89.9% and 94.3% and 103%	98.4% and 83.1% and 84%	71% (2×) and 73.5%	54.2% and 53.8% and 48.3%	30.1% and 34.3% and 34.5%	3500 nM and 4110 nM and 2820 nM										
CCCS(=O)(=O)Nc1ccc(F)c(C(=O)c2c[nH]c3ncc(-c4ccc(Cl)cc4)cc23)c1F	107% and 115% and 95.1%	95.8% (2×) and 89.8%	102% and 90.4% and 116%	105% and 107% and 95.2%	79.3% and 101% and 95.3%	49.6% and 44.3% and 34.8%	9880 nM and 8910 nM and 7500 nM										
CC[C@@]1(O)C(=O)OCc2c1cc1n(c2=O)Cc2cc3c(CN(C)C)c(O)ccc3nc2-1	65.8% and 77.7% and 65.3%	53.6% and 63.2% and 48.6%					> 100 nM and 89.8 nM	104% and 94.3% and 91.6%	83.4% and 88.9% and 88.8%							97.3% and 105% and 101%	92.3% and 95.7% and 97%
CCc1c2c(nc3ccc(O)cc13)-c1cc3c(c(=O)n1C2)COC(=O)[C@]3(O)CC	59.9% and 65.7% and 60.6%	48.4% and 64.6% and 47.4%	33.3% and 41.8% and 31.2%	18.5% and 31.8% and 23.8%			95 nM and 220 nM and 63.1 nM	60.2% and 77.9% and 72.8%	56.4% and 60.8% and 57.2%								
CCc1cc2c(N3CCc4c(cc(Cn5ccnc5)cc4-c4cn(C)nc4C(F)(F)F)C3=O)cc(C)nc2c(OC)n1	106% and 92.1% and 103%	91.4% and 85.8% and 99.9%	116% and 83.7% and 101%	91% and 107% and 80.5%	75% and 69.3% and 71.5%	54.1% and 46.2% and 47.7%	> 10000 nM and 8290 nM and 9040 nM										
CCc1cc2c(N3CCc4c(cc(Cn5ccnc5)cc4-c4cn(C)nc4C(F)(F)F)C3=O)ccnc2c(OC)n1	105% and 80.5% and 91.8%	94% and 89.7% and 94.5%	102% and 76.2% and 108%	107% and 92.5% and 85.3%	80.3% and 74.5% and 92%	51% and 47.2% and 50.3%	> 10000 nM and 8890 nM										
